Read-outs that look alike come from different tables or passages of the source.
Test system: subjects with metastatic or surgically unresectable urothelial cancer
[1] = all-causality, 6 mg continuous, n = 78

Procedure: Study treatment was administered on 28-day cycles. […] Patients were randomized 1:1 to 28-day cycles to the following 2 regimens until a regimen was selected for further study: Regimen 1 (10 mg once daily intermittent (7 days on/7 days); Regimen 2 (6 mg once daily continuous). Randomization was stratified according to performance status (0 to 1 vs. 2), hemoglobin value (<10 vs. ≥10 g per dl), FGFR alteration type (mutation vs. fusion), prior treatment status (chemotherapy-resistant vs. chemotherapy naïve), and disease distribution (presence or absence of visceral [liver, lung, bone]metastases). Starting dose selection was based on phase 1 efficacy and tolerability.
Based on interim analysis and pharmacokinetic-pharmacodynamic modeling of serum phosphate levels, starting dose was increased to 8 mg per day continuous (Regimen 3). Thus, after interim analysis, this became a single-arm study. […] Treatment continued until disease progression or unacceptable adverse event(s) per investigator.
Safety was evaluated based on clinical laboratory tests, physical exams, electrocardiograms, and ophthalmology examinations. Adverse events and abnormalities were assessed by investigator and graded per NCI CTCAE v.4.0
Prophylactic measures were taken to minimize risk of common adverse events related to FGFR inhibition. To reduce risk of hyperphosphatemia, a low-phosphate diet was recommended for all patients (600 to 800 mg of dietary phosphate intake per day). To reduce the risk of skin effects, the application of alcohol-free emollient moisturizing cream and avoidance of unnecessary exposure to sunlight, soap, perfumed products, and hot baths was recommended. Patients were asked to keep their fingers and toes clean and nails trimmed to reduce risk of nail effects.
Additional ophthalmology examinations were performed if clinically indicated.

COc1cc(OC)cc(N(CCNC(C)C)c2ccc3ncc(-c4cnn(C)c4)nc3c2)c1 [erdafitinib, N-(3,5-dimethoxy-phenyl)-N′-(1-methylethyl)-N-[3-(1-methyl-1H-pyrazol-4-yl)quinoxalin-6-yl]ethane-1,2-diamine]
Serious treatment-emergent: Dyspnea (6 mg continuous, n = 78): 1 (1) no. (%)
Serious treatment-emergent: Eye disorders (6 mg continuous, n = 78): 3 (4) no. (%)
Serious treatment-emergent: Gastrointestinal disorders (6 mg continuous, n = 78): 8 (10) no. (%)
Serious treatment-emergent: Infections and infestations (6 mg continuous, n = 78): 13 (17) no. (%)
Serious treatment-emergent: Metabolism and nutrition disorders (6 mg continuous, n = 78): 3 (4) no. (%)
Serious treatment-emergent: Nervous system disorders (6 mg continuous, n = 78): 5 (6) no. (%)
Serious treatment-emergent: Renal and urinary disorders (6 mg continuous, n = 78): 5 (6) no. (%)
Serious treatment-emergent: Respiratory, thoracic, mediastinal disorders (6 mg continuous, n = 78): 3 (4) no. (%)
Serious treatment-emergent: Urinary tract infection (6 mg continuous, n = 78): 4 (5) no. (%)
Serious treatment-emergent: Urosepsis (6 mg continuous, n = 78): 3 (4) no. (%)
Total number of patients with serious treatment-emergent adverse events (6 mg continuous, n = 78): 39 (50) no. (%)
Serious treatment-emergent: Dyspnea (8 mg continuous, n = 99): 2 (2) no. (%)
Serious treatment-emergent: Eye disorders (8 mg continuous, n = 99): 9 (9) no. (%)
Serious treatment-emergent: Gastrointestinal disorders (8 mg continuous, n = 99): 8 (8) no. (%)
Serious treatment-emergent: Infections and infestations (8 mg continuous, n = 99): 9 (9) no. (%)
Serious treatment-emergent: Metabolism and nutrition disorders (8 mg continuous, n = 99): 2 (2) no. (%)
Serious treatment-emergent: Nervous system disorders (8 mg continuous, n = 99): 1 (1) no. (%)
Serious treatment-emergent: Renal and urinary disorders (8 mg continuous, n = 99): 10 (10) no. (%)
Serious treatment-emergent: Respiratory, thoracic, mediastinal disorders (8 mg continuous, n = 99): 3 (3) no. (%)
Serious treatment-emergent: Urinary tract infection (8 mg continuous, n = 99): 3 (3) no. (%)
Serious treatment-emergent: Urosepsis (8 mg continuous, n = 99): 2 (2) no. (%)
Total number of patients with serious treatment-emergent adverse events (8 mg continuous, n = 99): 39 (39) no. (%)
Treatment-related Alanine aminotransferase increased, any grade (8 mg continuous, n = 99): 12 (12) no. (%)
Treatment-related Alanine aminotransferase increased, grade 1 (8 mg continuous, n = 99): 9 (9) no. (%)
Treatment-related Alanine aminotransferase increased, grade 2 (8 mg continuous, n = 99): 2 (2) no. (%)
Treatment-related Alanine aminotransferase increased, grade 3 (8 mg continuous, n = 99): 1 (1) no. (%)
Treatment-related Alopecia, any grade (8 mg continuous, n = 99): 27 (27) no. (%)
Treatment-related Alopecia, grade 1 (8 mg continuous, n = 99): 21 (21) no. (%)
Treatment-related Alopecia, grade 2 (8 mg continuous, n = 99): 6 (6) no. (%)
Treatment-related Alopecia, grade 3 (8 mg continuous, n = 99): 0 no. (%)
Treatment-related Asthenia, any grade (8 mg continuous, n = 99): 13 (13) no. (%)
Treatment-related Asthenia, grade 1 (8 mg continuous, n = 99): 2 (2) no. (%)
Treatment-related Asthenia, grade 2 (8 mg continuous, n = 99): 9 (9) no. (%)
Treatment-related Asthenia, grade 3 (8 mg continuous, n = 99): 2 (2) no. (%)
Treatment-related Decreased appetite, any grade (8 mg continuous, n = 99): 25 (25) no. (%)
Treatment-related Decreased appetite, grade 1 (8 mg continuous, n = 99): 11 (11) no. (%)
Treatment-related Decreased appetite, grade 2 (8 mg continuous, n = 99): 14 (14) no. (%)
Treatment-related Decreased appetite, grade 3 (8 mg continuous, n = 99): 0 no. (%)
Treatment-related Diarrhea, any grade (8 mg continuous, n = 99): 37 (37) no. (%)
Treatment-related Diarrhea, grade 1 (8 mg continuous, n = 99): 21 (21) no. (%)
Treatment-related Diarrhea, grade 2 (8 mg continuous, n = 99): 12 (12) no. (%)
Treatment-related Diarrhea, grade 3 (8 mg continuous, n = 99): 4 (4) no. (%)
Treatment-related Dry eye, any grade (8 mg continuous, n = 99): 19 (19) no. (%)
Treatment-related Dry eye, grade 1 (8 mg continuous, n = 99): 14 (14) no. (%)
Treatment-related Dry eye, grade 2 (8 mg continuous, n = 99): 4 (4) no. (%)
Treatment-related Dry eye, grade 3 (8 mg continuous, n = 99): 1 (1) no. (%)
Treatment-related Dry mouth, any grade (8 mg continuous, n = 99): 43 (43) no. (%)
Treatment-related Dry mouth, grade 1 (8 mg continuous, n = 99): 32 (32) no. (%)
Treatment-related Dry mouth, grade 2 (8 mg continuous, n = 99): 11 (11) no. (%)
Treatment-related Dry mouth, grade 3 (8 mg continuous, n = 99): 0 no. (%)
Treatment-related Dry skin, any grade (8 mg continuous, n = 99): 32 (32) no. (%)
Treatment-related Dry skin, grade 1 (8 mg continuous, n = 99): 24 (24) no. (%)
Treatment-related Dry skin, grade 2 (8 mg continuous, n = 99): 8 (8) no. (%)
Treatment-related Dry skin, grade 3 (8 mg continuous, n = 99): 0 no. (%)
Treatment-related Dysgeusia, any grade (8 mg continuous, n = 99): 35 (35) no. (%)
Treatment-related Dysgeusia, grade 1 (8 mg continuous, n = 99): 22 (22) no. (%)
Treatment-related Dysgeusia, grade 2 (8 mg continuous, n = 99): 12 (12) no. (%)
Treatment-related Dysgeusia, grade 3 (8 mg continuous, n = 99): 1 (1) no. (%)
Treatment-related Fatigue, any grade (8 mg continuous, n = 99): 21 (21) no. (%)
Treatment-related Fatigue, grade 1 (8 mg continuous, n = 99): 8 (8) no. (%)
Treatment-related Fatigue, grade 2 (8 mg continuous, n = 99): 11 (11) no. (%)
Treatment-related Fatigue, grade 3 (8 mg continuous, n = 99): 2 (2) no. (%)
Treatment-related Hand-foot syndrome, any grade (8 mg continuous, n = 99): 22 (22) no. (%)
Treatment-related Hand-foot syndrome, grade 1 (8 mg continuous, n = 99): 5 (5) no. (%)
Treatment-related Hand-foot syndrome, grade 2 (8 mg continuous, n = 99): 12 (12) no. (%)
Treatment-related Hand-foot syndrome, grade 3 (8 mg continuous, n = 99): 5 (5) no. (%)
Treatment-related Hyperphosphatemia, any grade (8 mg continuous, n = 99): 72 (73) no. (%)
Treatment-related Hyperphosphatemia, grade 1 (8 mg continuous, n = 99): 49 (50) no. (%)
Treatment-related Hyperphosphatemia, grade 2 (8 mg continuous, n = 99): 21 (21) no. (%)
Treatment-related Hyperphosphatemia, grade 3 (8 mg continuous, n = 99): 2 (2) no. (%)
Treatment-related Lacrimation increased, any grade (8 mg continuous, n = 99): 11 (11) no. (%)
Treatment-related Lacrimation increased, grade 1 (8 mg continuous, n = 99): 8 (8) no. (%)
Treatment-related Lacrimation increased, grade 2 (8 mg continuous, n = 99): 3 (3) no. (%)
Treatment-related Lacrimation increased, grade 3 (8 mg continuous, n = 99): 0 no. (%)
Treatment-related Nail dystrophy, any grade (8 mg continuous, n = 99): 16 (16) no. (%)
Treatment-related Nail dystrophy, grade 1 (8 mg continuous, n = 99): 5 (5) no. (%)
Treatment-related Nail dystrophy, grade 2 (8 mg continuous, n = 99): 5 (5) no. (%)
Treatment-related Nail dystrophy, grade 3 (8 mg continuous, n = 99): 6 (6) no. (%)
Treatment-related Onycholysis, any grade (8 mg continuous, n = 99): 16 (16) no. (%)
Treatment-related Onycholysis, grade 1 (8 mg continuous, n = 99): 4 (4) no. (%)
Treatment-related Onycholysis, grade 2 (8 mg continuous, n = 99): 10 (10) no. (%)
Treatment-related Onycholysis, grade 3 (8 mg continuous, n = 99): 2 (2) no. (%)
Treatment-related Paronychia, any grade (8 mg continuous, n = 99): 14 (14) no. (%)
Treatment-related Paronychia, grade 1 (8 mg continuous, n = 99): 1 (1) no. (%)
Treatment-related Paronychia, grade 2 (8 mg continuous, n = 99): 10 (10) no. (%)
Treatment-related Paronychia, grade 3 (8 mg continuous, n = 99): 3 (3) no. (%)
Treatment-related Stomatitis, any grade (8 mg continuous, n = 99): 54 (55) no. (%)
Treatment-related Stomatitis, grade 1 (8 mg continuous, n = 99): 19 (19) no. (%)
Treatment-related Stomatitis, grade 2 (8 mg continuous, n = 99): 26 (26) no. (%)
Treatment-related Stomatitis, grade 3 (8 mg continuous, n = 99): 9 (9) no. (%)
Treatment-related Vision blurred, any grade (8 mg continuous, n = 99): 16 (16) no. (%)
Treatment-related Vision blurred, grade 1 (8 mg continuous, n = 99): 10 (10) no. (%)
Treatment-related Vision blurred, grade 2 (8 mg continuous, n = 99): 6 (6) no. (%)
Treatment-related Vision blurred, grade 3 (8 mg continuous, n = 99): 0 no. (%)
Treatment-related Weight decreased, any grade (8 mg continuous, n = 99): 10 (10) no. (%)
Treatment-related Weight decreased, grade 1 (8 mg continuous, n = 99): 5 (5) no. (%)
Treatment-related Weight decreased, grade 2 (8 mg continuous, n = 99): 5 (5) no. (%)
Treatment-related Weight decreased, grade 3 (8 mg continuous, n = 99): 0 no. (%)
some type of eye disorder, regardless of relation to treatment (8 mg per day continuous): 63%
treatment-related CSR grade ≥3 events (8 mg per day continuous): 3%
treatment-related central serous retinopathy (CSR) (8 mg per day continuous): 21%
treatment-related dry skin (8 mg per day continuous): 32%
treatment-related effects on the nails (8 mg per day continuous): 52%
treatment-related effects on the skin (8 mg per day continuous): 49%
treatment-related hand-foot syndrome (8 mg per day continuous): 22%
treatment-related hyperphosphatemia (8 mg per day continuous): 73%
treatment-related nail dystrophy (8 mg per day continuous): 16%
treatment-related onycholysis (8 mg per day continuous): 16%
patients with grade ≥3 treatment-emergent adverse events (8 mg per day continuous group uptitrated to 9 mg per day): 68%
grade 1 or 2 events among patients with eye disorders (8 mg per day continuous, patients with eye disorders (n=62)): 84%
Serious treatment-emergent: Dyspnea (10 mg intermittent, n = 33): 2 (6) no. (%)
Serious treatment-emergent: Eye disorders (10 mg intermittent, n = 33): 1 (3) no. (%)
Serious treatment-emergent: Gastrointestinal disorders (10 mg intermittent, n = 33): 2 (6) no. (%)
Serious treatment-emergent: Infections and infestations (10 mg intermittent, n = 33): 2 (6) no. (%)
Serious treatment-emergent: Metabolism and nutrition disorders (10 mg intermittent, n = 33): 1 (3) no. (%)
Serious treatment-emergent: Nervous system disorders (10 mg intermittent, n = 33): 0 no. (%)
Serious treatment-emergent: Renal and urinary disorders (10 mg intermittent, n = 33): 1 (3) no. (%)
Serious treatment-emergent: Respiratory, thoracic, mediastinal disorders (10 mg intermittent, n = 33): 4 (12) no. (%)
Serious treatment-emergent: Urinary tract infection (10 mg intermittent, n = 33): 0 no. (%)
Serious treatment-emergent: Urosepsis (10 mg intermittent, n = 33): 0 no. (%)
Total number of patients with serious treatment-emergent adverse events (10 mg intermittent, n = 33): 14 (42) no. (%)
Hyperphosphatemia reported (Regimen 3): 77%
hyperphosphatemia leading to dose reduction (Regimen 3): 9%
hyperphosphatemia managed by dose interruption (Regimen 3): 23%
patients discontinued due to treatment-emergent adverse events (Regimen 3): 13%
patients reporting treatment-emergent adverse events (Regimen 3): All patients
patients who required dose reduction (Regimen 3): 56%
patients with serious treatment-emergent adverse events (Regimen 3): 39%
stomatitis leading to dose reduction (Regimen 3): 16%
treatment-emergent adverse events grade 3 or 4 (Regimen 3): 67%
patients who required ≥1 dose reduction (Regimen 3, among 41 patients uptitrated to 9 mg per day): 59%
central serious retinopathy events resolved (all unresolved events grade 1 or 2): Seventy-six percent
Abdominal pain, any grade [1]: 14 no.
Abdominal pain, grade 1 [1]: 7 no.
Abdominal pain, grade 2 [1]: 5 no.
Abdominal pain, grade ≥ 3 [1]: 2 no.
Alanine aminotransferase increased, any grade [1]: 9 no.
Alanine aminotransferase increased, grade 1 [1]: 7 no.
Alanine aminotransferase increased, grade 2 [1]: 2 no.
Alanine aminotransferase increased, grade ≥ 3 [1]: 0 no.
Alopecia, any grade [1]: 10 no.
Alopecia, grade 1 [1]: 9 no.
Alopecia, grade 2 [1]: 1 no.
Alopecia, grade ≥ 3 [1]: 0 no.
Anemia, any grade [1]: 13 no.
Anemia, grade 1 [1]: 0 no.
Anemia, grade 2 [1]: 8 no.
Anemia, grade ≥ 3 [1]: 5 no.
Arthralgia, any grade [1]: 8 no.
Arthralgia, grade 1 [1]: 5 no.
Arthralgia, grade 2 [1]: 2 no.
Arthralgia, grade ≥ 3 [1]: 1 no.
Aspartate aminotransferase increased, any grade [1]: 9 no.
Aspartate aminotransferase increased, grade 1 [1]: 7 no.
Aspartate aminotransferase increased, grade 2 [1]: 2 no.
Aspartate aminotransferase increased, grade ≥ 3 [1]: 0 no.
Asthenia, any grade [1]: 18 no.
Asthenia, grade 1 [1]: 5 no.
Asthenia, grade 2 [1]: 4 no.
Asthenia, grade ≥ 3 [1]: 9 no.
Back pain, any grade [1]: 11 no.
Back pain, grade 1 [1]: 6 no.
Back pain, grade 2 [1]: 3 no.
Back pain, grade ≥ 3 [1]: 2 no.
Blood creatinine increased, any grade [1]: 6 no.
Blood creatinine increased, grade 1 [1]: 3 no.
Blood creatinine increased, grade 2 [1]: 3 no.
Blood creatinine increased, grade ≥ 3 [1]: 0 no.
Conjunctivitis, any grade [1]: 7 no.
Conjunctivitis, grade 1 [1]: 4 no.
Conjunctivitis, grade 2 [1]: 2 no.
